Holding throughout (format): cell-based
One assay deals with AMPKα. Nature of the assay: Time course immunoblot of p-AMPKα (Thr172)/total AMPKα in primary human TM cell lysates. The following applies: 0.5 mM AICAR, human TM cells. The protocol: (§1) Primary human trabecular meshwork (TM) cells were isolated, in accordance with the Declaration of Helsinki, and maintained in culture as described previously.^63 Independent primary human TM cell lines were generated from donors ranging in age from 35 to 72 years and no known history of ocular disease. Cell cultures were maintained, unless otherwise stated, in Dulbecco's modified eagle medium (Life Technologies, Grand Island, N.Y.) containing 20% fetal bovine serum, 1% L-glutamine (2 mM), and gentamicin (0.1 mg/ml) at 37° C. in a 10% CO2 atmosphere. Only TM cells from third through fifth passage were used. All experiments were performed using at least three different primary human TM cell lines.
At the conclusion of each experiment for matricellular and ECM protein detection, conditioned media (CM) from TM cell cultures was harvested and centrifuged at 5000 rpm for 10 minutes at 4° C. The supernatant was then concentrated (Amicon Ultra-4 Filter Unit, 10 kDa; Millipore, Milford, Mass.), and protein content quantified using the DC Protein Assay kit adhering to manufacturer's protocols (Bio-Rad, Hercules, Calif.). For AMPK protein detection, cells were lysed for 3 minutes on ice with cold 1×RIPA buffer containing 0.5% Aprotinin, 0.1% EDTA, 1% EGTA, 0.5% PMSF, and 0.01% Leupeptin. Samples were then centrifuged at 14,000 rpm for 15 minutes at 4° C. and protein content quantified. In all experiments, equal amounts of protein were treated with 6× reducing buffer and boiled for 5 minutes. Samples were then electrophoresed in 10% SDS-polyacrylamide gels, alongside a pre-stained protein marker (Cell Signaling Technology Inc., Danvers, Ma). For conditioned media loading control, the resultant gels were stained with 0.1% Coomassie Brilliant Blue G-250 (Bio-Rad, Hercules Calif.) for 3 hours and were destained with fixing/destaining solution until clear bands were visible and contrasted well with the true blue background. Otherwise, proteins were transferred to nitrocellulose membranes (0.45-μm pore size; Invitrogen). […] The membranes were then washed three times with 1×TBS-T, scanned, and integrated band intensities were calculated using an infrared imaging system (Odyssey; Li-Cor, Lincoln, Nebr.). […]

Assay [1] has as its system Acetyl-CoA carboxylase (ACC). Put plainly: Time course immunoblot of p-ACC/total ACC in primary human TM cell lysates. The conditions noted are these: 0.5 mM AICAR, human TM cells. The protocol:
as §1, with “All experiments were performed using at least three different primary human TM cell lines.” left out
(§2) At the conclusion of each experiment for matricellular and ECM protein detection, conditioned media (CM) from TM cell cultures was harvested and centrifuged at 5000 rpm for 10 minutes at 4° C. The supernatant was then concentrated (Amicon Ultra-4 Filter Unit, 10 kDa; Millipore, Milford, Mass.), and protein content quantified using the DC Protein Assay kit adhering to manufacturer's protocols (Bio-Rad, Hercules, Calif.). […] Samples were then centrifuged at 14,000 rpm for 15 minutes at 4° C. and protein content quantified. […] The membranes were then washed three times with 1×TBS-T, scanned, and integrated band intensities were calculated using an infrared imaging system (Odyssey; Li-Cor, Lincoln, Nebr.). […]
(In western blotting, separated proteins are transferred to a membrane and probed.)

The next assay has as its system RhoA. Nature of the assay: Immunoblot of p-RhoA (Ser188)/total RhoA in human TM cell lysates. The following applies: 0.5 mM AICAR. The method, then: as §1, with “All experiments were performed using at least three different primary human TM cell lines.” left out
as §2

The test system of assay [2] is primary cultured human TM cells. Put plainly: Phalloidin (F-actin) immunofluorescent staining and morphology of primary cultured human TM cells. The method, then:
FIG. 6. […] Human TM cells were plated on 8-well slides, treated as in FIG. 3, and then stained with phalloidin (F-actin) antibody. Nuclei were stained with DAPI. Representative immunofluorescent images shown above (n=3). Scale bar, 50 μm. Primary human trabecular meshwork (TM) cells were isolated, in accordance with the Declaration of Helsinki, and maintained in culture as described previously.^63 Independent primary human TM cell lines were generated from donors ranging in age from 35 to 72 years and no known history of ocular disease. Cell cultures were maintained, unless otherwise stated, in Dulbecco's modified eagle medium (Life Technologies, Grand Island, N.Y.) containing 20% fetal bovine serum, 1% L-glutamine (2 mM), and gentamicin (0.1 mg/ml) at 37° C. in a 10% CO2 atmosphere. Only TM cells from third through fifth passage were used. All experiments were performed using at least three different primary human TM cell lines. TM cells in 8 well-slides were fixed for 30 minutes with 4% paraformaldehyde in PBS (pH 7.4) at 4° C., then washed in PBS for 10 minutes twice at RT. Cells were permeabilized with 0.2% Triton-100 in PBS for 5 min and then washed in PBS and blocked in 3% bovine serum albumin (BSA) in PBS for 1 hr at RT. […] Nuclei were stained with TO-DAPI (Invitrogen), and labeled tissues were analyzed by fluorescent light microscopy using a Zeiss Observer3.1.

The source of these data is patent publication US20170020909A1, “METHODS OF TREATING GLAUCOMA USING AMP-ACTIVATED PROTEIN KINASE (AMPK) ACTIVATORS” (Massachusetts Eye and Ear Infirmary, priority 2014, published 2017).

“Also recorded” adds a separate entry of the source.

Take `NC(=O)c1ncn([C@@H]2O[C@H](CO)[C@@H](O)[C@H]2O)c1N` [AICAR, 5-Aminoimidazole-4-carboxamide riboside]: the “peak increase of phospho-total AMPK ratio” value in the assay with AMPKα (at 2 hours) is “greater than 2 fold”. Moreover, the “increase of phospho-total AMPK ratio, normalized to the zero time point” value in the assay on AMPKα (within 1 hour) is recorded as 77%. Also, the “peak increase of phospho-total ACC ratio” value in assay [1] (at 6 hours) worked out at 6.6 fold. The “change of phospho-total ACC ratio” value in assay [1] (within 15 minutes) is on record as “increased by a statistically significant degree”. In addition, the “duration of the phospho-total RhoA ratio increase” value in the assay on RhoA (through 24 hours) is given as “remained statistically significant through 24 hours”. Also, the “increase of phospho-total RhoA ratio (Ser188)” value with RhoA (within one hour, human TM cells) is recorded as “approximately 10 fold”. The cell morphology result in assay [2] (0.5 mM AICAR, cultured TM cells (data not shown)) is “narrower cell bodies”. The “F-actin staining and actin stress fiber formation” value in assay [2] (AICAR, basal and TGF-β2 stimulatory conditions) is “decreased F-actin staining and actin stress fiber formation; also recorded: decreased F-actin cytoskeletal staining, and fewer actin stress fibers”.
